Columns and labels:
[1] = biological target: Lysosome-associated membrane glycoprotein 2 (Homo sapiens) (UniProt P13473)
[2] = biological target: Proliferating cell nuclear antigen (Homo sapiens) (UniProt P12004)
[3] = biological target: Translation initiation factor eIF2B subunit gamma (Homo sapiens) (UniProt Q9NR50)
[4] = biological target: Cathepsin B (Homo sapiens) (UniProt P07858)
[5] = biological target: Serine/threonine-protein kinase 4 (Homo sapiens) (UniProt Q13043)
[6] = biological target: Heterogeneous nuclear ribonucleoprotein M (Homo sapiens) (UniProt P52272)
[7] = biological target: Transcription factor A, mitochondrial (Homo sapiens) (UniProt Q00059)
[8] = biological target: NADH dehydrogenase [ubiquinone] 1 alpha subcomplex assembly factor 4 (Homo sapiens) (UniProt Q9P032)
[9] = biological target: Dynamin-2 (Homo sapiens) (UniProt P50570)
[10] = biological target: Ribosomal protein S6 kinase alpha-3 (Homo sapiens) (UniProt P51812)
[11] = biological target: Cyclin-dependent kinase 13 (Homo sapiens) (UniProt Q14004)
[12] = biological target: MAP/microtubule affinity-regulating kinase 3 (Homo sapiens) (UniProt P27448)
[13] = biological target: Probable ATP-dependent RNA helicase DDX5 (Homo sapiens) (UniProt P17844)
[14] = biological target: Large ribosomal subunit protein uL23 (Homo sapiens) (UniProt P62750)
[15] = biological target: Kinectin (Homo sapiens) (UniProt Q86UP2)
[16] = biological target: Elongation factor 1-delta (Homo sapiens) (UniProt P29692)
[17] = biological target: Glycogen phosphorylase, liver form (Homo sapiens) (UniProt P06737)
[18] = biological target: ORM1-like protein 3 (Homo sapiens) (UniProt Q8N138)
[19] = biological target: Heterogeneous nuclear ribonucleoproteins C1/C2 (Homo sapiens) (UniProt P07910)
[20] = biological target: Peptidyl-prolyl cis-trans isomerase FKBP4 (Homo sapiens) (UniProt Q02790)
[21] = biological target: Large ribosomal subunit protein bL12m (Homo sapiens) (UniProt P52815)
[22] = biological target: Tubulin beta-6 chain (Homo sapiens) (UniProt Q9BUF5)
[23] = biological target: Mitogen-activated protein kinase 10 (Homo sapiens) (UniProt P53779)
[24] = biological target: Large ribosomal subunit protein eL21 (Homo sapiens) (UniProt P46778)
[25] = biological target: Enoyl-CoA delta isomerase 1, mitochondrial (Homo sapiens) (UniProt P42126)
[26] = biological target: Large ribosomal subunit protein eL14 (Homo sapiens) (UniProt P50914)
[27] = biological target: Microtubule-actin cross-linking factor 1, isoforms 1/2/3/4/5 (Homo sapiens) (UniProt Q9UPN3)
[28] = biological target: Ras-related protein Rab-10 (Homo sapiens) (UniProt P61026)
[29] = biological target: Aurora kinase B (Homo sapiens) (UniProt Q96GD4)
[30] = biological target: Large ribosomal subunit protein eL31 (Homo sapiens) (UniProt P62899)
[31] = biological target: Tropomyosin alpha-3 chain (Homo sapiens) (UniProt P06753)
[32] = biological target: B-cell receptor-associated protein 31 (Homo sapiens) (UniProt P51572)
[33] = biological target: Serine/threonine-protein kinase Nek9 (Homo sapiens) (UniProt Q8TD19)
[34] = biological target: Protein transport protein Sec16A (Homo sapiens) (UniProt O15027)
[35] = biological target: Glycogen synthase kinase-3 beta (Homo sapiens) (UniProt P49841)
[36] = biological target: Eukaryotic translation initiation factor 3 subunit J (Homo sapiens) (UniProt O75822)
[37] = biological target: Oligosaccharyltransferase complex subunit OSTC (Homo sapiens) (UniProt Q9NRP0)
[38] = biological target: ATP synthase F(1) complex subunit alpha, mitochondrial (Homo sapiens) (UniProt P25705)
[39] = biological target: Serine/threonine-protein kinase Nek2 (Homo sapiens) (UniProt P51955)
[40] = biological target: GTP-binding protein 4 (Homo sapiens) (UniProt Q9BZE4)
[41] = organism: Homo sapiens
[42] = biological target: Neutral alpha-glucosidase AB (Homo sapiens) (UniProt Q14697)
[43] = biological target: cGMP-dependent protein kinase 1 (Homo sapiens) (UniProt Q13976)
[44] = biological target: Cullin-1 (Homo sapiens) (UniProt Q13616)
[45] = biological target: Mitochondrial import inner membrane translocase subunit TIM50 (Homo sapiens) (UniProt Q3ZCQ8)
[46] = biological target: 5'-AMP-activated protein kinase subunit beta-1 (Homo sapiens) (UniProt Q9Y478)
Further: assay method not described here.

Chain of Enoyl-CoA delta isomerase 1, mitochondrial (Homo sapiens) (P42126 whole entry): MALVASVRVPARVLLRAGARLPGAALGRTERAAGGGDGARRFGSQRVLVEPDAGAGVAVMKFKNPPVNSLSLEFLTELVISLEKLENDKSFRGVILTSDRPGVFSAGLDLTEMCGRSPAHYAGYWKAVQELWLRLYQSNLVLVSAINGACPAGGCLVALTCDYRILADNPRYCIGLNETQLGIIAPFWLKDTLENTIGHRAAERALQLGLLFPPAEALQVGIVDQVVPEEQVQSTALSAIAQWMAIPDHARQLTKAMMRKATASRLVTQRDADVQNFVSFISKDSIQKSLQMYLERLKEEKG
Chain of cGMP-dependent protein kinase 1 (Homo sapiens) (Q13976 whole entry): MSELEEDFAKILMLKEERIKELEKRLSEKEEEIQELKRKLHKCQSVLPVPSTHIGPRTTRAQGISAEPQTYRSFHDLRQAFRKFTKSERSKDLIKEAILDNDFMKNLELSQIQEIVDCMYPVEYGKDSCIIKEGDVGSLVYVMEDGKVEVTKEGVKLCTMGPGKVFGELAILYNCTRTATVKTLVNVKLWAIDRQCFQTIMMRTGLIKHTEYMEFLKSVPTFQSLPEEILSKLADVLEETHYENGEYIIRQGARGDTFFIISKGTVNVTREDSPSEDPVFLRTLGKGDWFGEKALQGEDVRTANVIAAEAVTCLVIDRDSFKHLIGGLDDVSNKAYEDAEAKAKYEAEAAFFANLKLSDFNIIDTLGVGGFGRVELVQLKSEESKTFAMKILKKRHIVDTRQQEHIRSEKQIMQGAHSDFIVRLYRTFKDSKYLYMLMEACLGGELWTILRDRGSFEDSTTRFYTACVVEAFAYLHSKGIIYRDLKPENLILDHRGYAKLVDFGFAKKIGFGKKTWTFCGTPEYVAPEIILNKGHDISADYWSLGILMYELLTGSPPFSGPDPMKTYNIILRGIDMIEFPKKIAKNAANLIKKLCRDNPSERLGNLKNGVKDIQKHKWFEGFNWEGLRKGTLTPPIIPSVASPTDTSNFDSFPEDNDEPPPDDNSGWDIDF
Chain of Serine/threonine-protein kinase Nek9 (Homo sapiens) (Q8TD19 whole entry): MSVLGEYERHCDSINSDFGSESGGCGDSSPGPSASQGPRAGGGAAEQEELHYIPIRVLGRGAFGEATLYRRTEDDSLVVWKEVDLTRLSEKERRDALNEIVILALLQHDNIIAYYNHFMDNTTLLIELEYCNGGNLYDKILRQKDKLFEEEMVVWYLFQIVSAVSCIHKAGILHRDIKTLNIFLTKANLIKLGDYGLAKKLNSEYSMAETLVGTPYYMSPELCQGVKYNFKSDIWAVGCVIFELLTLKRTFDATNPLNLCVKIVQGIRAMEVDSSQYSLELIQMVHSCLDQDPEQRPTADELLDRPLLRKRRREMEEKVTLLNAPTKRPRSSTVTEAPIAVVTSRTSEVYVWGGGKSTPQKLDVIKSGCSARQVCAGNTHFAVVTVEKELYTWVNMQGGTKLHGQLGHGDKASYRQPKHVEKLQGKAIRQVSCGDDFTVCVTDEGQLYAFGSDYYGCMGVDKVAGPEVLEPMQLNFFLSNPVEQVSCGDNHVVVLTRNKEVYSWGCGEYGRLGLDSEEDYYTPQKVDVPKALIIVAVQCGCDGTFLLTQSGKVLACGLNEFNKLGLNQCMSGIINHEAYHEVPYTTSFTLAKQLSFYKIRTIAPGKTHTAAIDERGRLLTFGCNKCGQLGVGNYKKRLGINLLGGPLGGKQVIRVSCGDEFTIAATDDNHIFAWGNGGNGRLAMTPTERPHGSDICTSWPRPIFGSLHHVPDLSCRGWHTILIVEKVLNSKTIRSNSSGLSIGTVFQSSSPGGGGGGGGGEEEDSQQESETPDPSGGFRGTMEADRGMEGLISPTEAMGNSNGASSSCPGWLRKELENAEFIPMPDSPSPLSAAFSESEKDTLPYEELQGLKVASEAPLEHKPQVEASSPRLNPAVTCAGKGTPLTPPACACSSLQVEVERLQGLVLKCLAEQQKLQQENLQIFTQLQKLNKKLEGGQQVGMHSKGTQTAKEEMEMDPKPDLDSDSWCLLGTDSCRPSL
Chain of Serine/threonine-protein kinase Nek2 (Homo sapiens) (P51955 whole entry): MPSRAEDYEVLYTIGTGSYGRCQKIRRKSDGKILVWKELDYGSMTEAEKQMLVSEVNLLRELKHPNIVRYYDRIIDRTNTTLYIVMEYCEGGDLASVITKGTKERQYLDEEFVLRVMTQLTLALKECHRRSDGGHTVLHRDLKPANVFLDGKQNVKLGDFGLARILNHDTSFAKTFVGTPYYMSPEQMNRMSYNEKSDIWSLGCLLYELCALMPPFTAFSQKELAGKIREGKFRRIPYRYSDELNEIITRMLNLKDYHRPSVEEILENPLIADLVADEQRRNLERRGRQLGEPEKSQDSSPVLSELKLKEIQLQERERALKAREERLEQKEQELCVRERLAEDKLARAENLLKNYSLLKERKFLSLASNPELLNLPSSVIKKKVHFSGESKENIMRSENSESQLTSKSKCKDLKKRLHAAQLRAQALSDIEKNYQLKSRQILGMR
Chain of NADH dehydrogenase [ubiquinone] 1 alpha subcomplex assembly factor 4 (Homo sapiens) (Q9P032 whole entry, one chain of several): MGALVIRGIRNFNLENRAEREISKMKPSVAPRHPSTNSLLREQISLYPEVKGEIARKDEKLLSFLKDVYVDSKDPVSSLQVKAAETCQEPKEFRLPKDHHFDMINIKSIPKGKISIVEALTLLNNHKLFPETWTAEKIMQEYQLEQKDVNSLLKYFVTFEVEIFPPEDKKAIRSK
Chain of Peptidyl-prolyl cis-trans isomerase FKBP4 (Homo sapiens) (Q02790 whole entry): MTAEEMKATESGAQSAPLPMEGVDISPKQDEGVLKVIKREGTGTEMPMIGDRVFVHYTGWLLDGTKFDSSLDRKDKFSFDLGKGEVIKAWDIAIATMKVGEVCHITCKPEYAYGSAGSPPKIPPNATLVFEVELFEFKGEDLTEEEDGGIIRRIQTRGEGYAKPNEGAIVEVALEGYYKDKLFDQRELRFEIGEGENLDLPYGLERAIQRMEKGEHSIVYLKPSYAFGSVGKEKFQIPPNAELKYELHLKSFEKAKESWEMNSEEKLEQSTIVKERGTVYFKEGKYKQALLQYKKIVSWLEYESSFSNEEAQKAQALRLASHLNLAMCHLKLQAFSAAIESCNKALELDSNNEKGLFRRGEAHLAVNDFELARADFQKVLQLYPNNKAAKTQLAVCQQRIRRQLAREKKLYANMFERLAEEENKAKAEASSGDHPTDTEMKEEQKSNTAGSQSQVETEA
Chain of MAP/microtubule affinity-regulating kinase 3 (Homo sapiens) (P27448 whole entry, looked up): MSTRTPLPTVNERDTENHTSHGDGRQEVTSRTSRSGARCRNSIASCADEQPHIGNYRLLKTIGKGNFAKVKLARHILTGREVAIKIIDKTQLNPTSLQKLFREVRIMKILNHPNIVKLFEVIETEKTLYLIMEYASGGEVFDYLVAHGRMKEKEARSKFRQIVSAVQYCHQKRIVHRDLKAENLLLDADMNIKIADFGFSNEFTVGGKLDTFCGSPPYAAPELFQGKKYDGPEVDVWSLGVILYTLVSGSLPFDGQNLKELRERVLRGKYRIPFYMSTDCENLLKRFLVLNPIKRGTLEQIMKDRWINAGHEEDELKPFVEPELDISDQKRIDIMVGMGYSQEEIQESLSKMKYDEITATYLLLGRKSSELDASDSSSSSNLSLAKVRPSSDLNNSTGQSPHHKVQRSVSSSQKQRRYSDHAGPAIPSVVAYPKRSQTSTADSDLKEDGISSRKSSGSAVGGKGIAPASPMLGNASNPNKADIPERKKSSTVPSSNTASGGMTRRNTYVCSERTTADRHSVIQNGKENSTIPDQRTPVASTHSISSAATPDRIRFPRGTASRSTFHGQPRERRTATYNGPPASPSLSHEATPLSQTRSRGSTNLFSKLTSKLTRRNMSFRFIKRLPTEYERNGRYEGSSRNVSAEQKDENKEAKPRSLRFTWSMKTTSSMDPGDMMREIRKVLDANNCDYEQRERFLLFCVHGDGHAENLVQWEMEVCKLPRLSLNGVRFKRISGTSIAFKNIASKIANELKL
Chain of ATP synthase F(1) complex subunit alpha, mitochondrial (Homo sapiens) (P25705 whole entry, one chain of several): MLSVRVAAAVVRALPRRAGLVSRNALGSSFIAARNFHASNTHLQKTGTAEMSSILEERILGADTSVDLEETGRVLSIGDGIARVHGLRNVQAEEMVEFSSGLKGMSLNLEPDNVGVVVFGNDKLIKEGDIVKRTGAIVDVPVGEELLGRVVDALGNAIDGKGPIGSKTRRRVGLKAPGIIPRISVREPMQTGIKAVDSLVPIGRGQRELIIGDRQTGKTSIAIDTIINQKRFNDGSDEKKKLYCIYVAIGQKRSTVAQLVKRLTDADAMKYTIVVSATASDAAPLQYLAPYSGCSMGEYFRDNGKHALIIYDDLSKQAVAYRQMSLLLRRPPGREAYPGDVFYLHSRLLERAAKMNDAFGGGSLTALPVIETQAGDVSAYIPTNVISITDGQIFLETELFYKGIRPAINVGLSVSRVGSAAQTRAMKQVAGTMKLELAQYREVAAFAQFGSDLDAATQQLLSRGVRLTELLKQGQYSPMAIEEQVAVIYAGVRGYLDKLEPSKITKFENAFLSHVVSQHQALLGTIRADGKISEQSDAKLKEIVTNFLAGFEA
Chain of 5'-AMP-activated protein kinase subunit beta-1 (Homo sapiens) (Q9Y478 whole entry): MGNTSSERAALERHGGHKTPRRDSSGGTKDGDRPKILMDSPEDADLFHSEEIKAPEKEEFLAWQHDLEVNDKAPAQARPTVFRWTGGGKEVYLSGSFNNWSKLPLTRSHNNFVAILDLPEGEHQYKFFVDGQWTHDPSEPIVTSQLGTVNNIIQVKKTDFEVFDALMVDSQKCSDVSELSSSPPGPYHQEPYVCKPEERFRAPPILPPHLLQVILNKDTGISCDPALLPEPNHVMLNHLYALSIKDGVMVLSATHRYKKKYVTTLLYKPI
Chain of B-cell receptor-associated protein 31 (Homo sapiens) (P51572 whole entry): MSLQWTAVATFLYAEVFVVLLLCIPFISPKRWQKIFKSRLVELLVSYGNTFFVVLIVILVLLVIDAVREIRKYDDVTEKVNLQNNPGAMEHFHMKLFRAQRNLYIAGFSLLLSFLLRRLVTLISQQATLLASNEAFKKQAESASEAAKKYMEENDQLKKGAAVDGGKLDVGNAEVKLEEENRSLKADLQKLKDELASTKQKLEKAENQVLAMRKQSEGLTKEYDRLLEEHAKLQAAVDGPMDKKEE

`Cc1ccc(C(=O)Nc2cccc(C(F)(F)F)c2)cc1Nc1nc(-c2cccnc2)nc2c1cnn2C` gave an ED50 [1] of 37.8 nM, an ED50 [2] of 3510 nM and an ED50 [3] of 10300 nM. The ED50 [4] was 60400 nM, the ED50 [5] was 2730 nM and the ED50 [6] was 8570 nM. It also gave an ED50 [7] of 17000 nM, an ED50 [8] of 1.5 nM and an ED50 [9] of 21900 nM. For the same compound, the ED50 [10] was 5.28 nM, the ED50 [11] was 17800 nM and the ED50 [12] was 19100 nM. It also gave an ED50 [13] of 1160 nM, an ED50 [14] of 105 nM and an ED50 [15] of 4850 nM. It also gave an ED50 [16] of 1740 nM, an ED50 [17] of 2.39 nM and an ED50 [18] of 5950 nM. The ED50 [19] was 127 nM, the ED50 [20] was 8870 nM and the ED50 [21] was 7740 nM. The ED50 [22] was 2530 nM, the ED50 [23] was 32900 nM and the ED50 [24] was 1640 nM. The ED50 [25] was 5020 nM, the ED50 [26] was 187 nM and the ED50 [27] was 5130 nM. The ED50 [28] was 846 nM, the ED50 [29] was 11600 nM and the ED50 [30] was 14900 nM. The ED50 [31] was 5570 nM, the ED50 [32] was 69.1 nM and the ED50 [33] was 163 nM. For the same compound, the ED50 [34] was 6.75 nM, the ED50 [35] was 4030 nM and the ED50 [36] was 126 nM. It also gave an ED50 [37] of 15600 nM, an ED50 [38] of 1480 nM and an ED50 [39] of 11 nM. The ED50 [40] was 2950 nM, the ED50 [41] was 3660 nM and the ED50 [42] was 4090 nM. The ED50 [43] was 2.46 nM, the ED50 [44] was 0.443 nM and the ED50 [45] was 3590 nM. For the same compound, the ED50 [46] was 3250 nM.
`Cc1ccc(C(=O)Nc2cccc(C(F)(F)F)c2)cc1Nc1nc(-c2cccnc2)nc2nn(C)cc12` showed an ED50 [1] of 1720 nM, an ED50 [2] of 502 nM and an ED50 [3] of 332 nM. The ED50 [4] was 18100 nM, the ED50 [5] was 49.8 nM and the ED50 [6] was 13500 nM. It also gave an ED50 [7] of 48.7 nM, an ED50 [8] of 1820 nM and an ED50 [9] of 471 nM. It also gave an ED50 [10] of 7920 nM, an ED50 [11] of 8220 nM and an ED50 [12] of 409 nM. For the same compound, the ED50 [13] was 15.7 nM, the ED50 [14] was 13.7 nM and the ED50 [15] was 466 nM. For the same compound, the ED50 [16] was 53.8 nM, the ED50 [17] was 5790 nM and the ED50 [18] was 7470 nM. The ED50 [19] was 7540 nM, the ED50 [20] was 546 nM and the ED50 [21] was 117 nM. The ED50 [22] was 4670 nM, the ED50 [23] was 1720 nM and the ED50 [24] was 9950 nM. It also gave an ED50 [25] of 64000 nM, an ED50 [26] of 7310 nM and an ED50 [27] of 23.4 nM. For the same compound, the ED50 [28] was 7340 nM, the ED50 [29] was 128 nM and the ED50 [30] was 4.49 nM. It also gave an ED50 [31] of 18900 nM, an ED50 [32] of 1700 nM and an ED50 [33] of 51.9 nM. For the same compound, the ED50 [34] was 5.2 nM, the ED50 [35] was 17.7 nM and the ED50 [36] was 540 nM. The ED50 [37] was 1150 nM, the ED50 [38] was 1740 nM and the ED50 [39] was 324 nM. For the same compound, the ED50 [40] was 593 nM, the ED50 [41] was 17500 nM and the ED50 [42] was 40.2 nM. The ED50 [43] was 4940 nM, the ED50 [44] was 5.1 nM and the ED50 [45] was 1850 nM. For the same compound, the ED50 [46] was 5820 nM.
